From patent publication EP4678638A1, “NEW E3 UBIQUITIN LIGASE LIGAND, PROTEIN DEGRADATION AGENT AND USE THEREOF” (priority 2023, dated 2024)
Like-named read-outs stand apart in the source and are kept apart here.

Legend:
[1] = target: T1, human Cereblon WT GST-tagged protein (Homo sapiens, UniProt Q96SW2); experiment: CRBN binding, HTRF (CEREBLON BINDING kit); details: for inhibition at 0.5 µM: read-out: Inhibition rate (%) at 0.5µM; for inhibition at 2 µM: read-out: Inhibition rate (%) at 2 µM
T1 construct: purchased CISBIO 64BDCRBNPEH
Summary of the method: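 After 3 h at room temperature, emission at 665 and 620 nm was measured in a homogeneous time-resolved fluorescence format. Compounds competed with a Thalidomide-Re probe for GST-tagged wild-type human CRBN, which was labelled with a Eu anti-GST antibody.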

SU-DHL-6 = experiment: CCK-8 proliferation, SU-DHL-6; type: cell-based; details: Homo sapiens, read-out: Inhibitory activity (IC50) on tumor cell proliferation, SU-DHL-6
Procedure: (§1) The tumor cells used herein were cultured in a cell culture medium listed in table A1 at 37°C in an incubator with 5% CO2. Prior to experimentation, all cell lines used were correctly identified by STR profiling, and tested negative for mycoplasma contamination using a mycoplasma detection kit through routine screenings. Table A1. Tumor cells and cell culture medium used in the present disclosure
(§2) IC50 values of the compounds of the present disclosure (including the compounds in Table 1, and compounds of examples) were measured using the Meilun Cell Counting Kit-8 kit from Dalian Meilun Biotech Co., Ltd. Assay details are as follows: tumor cells were seeded in a 96-well plate at a density listed in Table A2. After 24h, 100 µL of the inoculated cells were treated with 0.5µL of the compounds of the present disclosure (including the compounds in Tables 1 and 2, and compounds of examples) at 10 different successively decreasing concentrations (starting at the highest concentration of 10µM; 5-fold serial dilutions). After the cells were treated with the compounds of the present disclosure for a period of time, the cell viability detection reagent was added to the culture medium for cell viability assessment according to the instructions provided with the CCK-8 kit. […] The growth inhibition of the compounds of the present disclosure on cells was plotted by Prism Graphpad software, and the IC50 values of the compounds of the present disclosure were calculated therefrom. […] Seeding protocol and treatment time for tumor cells

TMD8 = experiment: CCK-8 proliferation, TMD8; type: cell-based; details: Homo sapiens, read-out: Inhibitory activity (IC50) on tumor cell proliferation, TMD8
Procedure: as §1, §2

SW620 = experiment: CCK-8 proliferation, SW620; type: cell-based; details: Homo sapiens, read-out: Inhibitory activity (IC50) on tumor cell proliferation, SW620
Summary of the method: (§3)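 CCK-8 viability readout; IC50 from growth-inhibition curve fitting. Cells plated, dosed 24h later with a 10-point series, top 10µM, 5-fold steps. Culture at 37°C, 5% CO2.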

THP-1 = experiment: CCK-8 proliferation, THP-1; type: cell-based; details: Homo sapiens, 72 hours, read-out: Inhibitory activity (IC50) on tumor cell proliferation, THP-1
Procedure: as §1, §2

LS174T = experiment: CCK-8 proliferation, LS174T; type: cell-based; details: Homo sapiens, read-out: Inhibitory activity (IC50) on tumor cell proliferation, LS174T
Procedure: IC50 values of the compounds of the present disclosure (including the compounds in Table 1, and compounds of examples) were measured using the Meilun Cell Counting Kit-8 kit from Dalian Meilun Biotech Co., Ltd. Assay details are as follows: tumor cells were seeded in a 96-well plate at a density listed in Table A2. After 24h, 100 µL of the inoculated cells were treated with 0.5µL of the compounds of the present disclosure (including the compounds in Tables 1 and 2, and compounds of examples) at 10 different successively decreasing concentrations (starting at the highest concentration of 10µM; 5-fold serial dilutions). After the cells were treated with the compounds of the present disclosure for a period of time, the cell viability detection reagent was added to the culture medium for cell viability assessment according to the instructions provided with the CCK-8 kit. […] The growth inhibition of the compounds of the present disclosure on cells was plotted by Prism Graphpad software, and the IC50 values of the compounds of the present disclosure were calculated therefrom. [drawing 1519] Table A2. Seeding protocol and treatment time for tumor cells

Jurkat = experiment: CCK-8 proliferation, Jurkat; type: cell-based, Human; details: Homo sapiens, Jurkat; CCK-8; 96 hours; read-out: Inhibitory activity (IC50) on tumor cell proliferation, Jurkat
Summary of the method: as §3

CCRF-CEM = experiment: CCK-8 proliferation, CCRF-CEM; type: cell-based, Human; details: Homo sapiens, CCRF-CEM; CCK-8; 96 hours; read-out: Inhibitory activity (IC50) on tumor cell proliferation, CCRF-CEM
Summary of the method: as §3

LNcap = experiment: CCK-8 proliferation, LNcap; type: cell-based; details: Homo sapiens, LNCaP; CCK-8; 96 hours; read-out: Inhibitory activity (IC50) on tumor cell proliferation, Lncap
Summary of the method: as §3

MGC-803 = experiment: CCK-8 proliferation, MGC-803 (heads: MGC80-3, MGC803); type: cell-based, Human; details: Homo sapiens, MGC-803; CCK-8; 72 hours; read-out: Inhibitory activity (IC50) on tumor cell proliferation, MGC80-3
Summary of the method: as §3

H520 = experiment: CCK-8 proliferation, H520; type: cell-based; details: Homo sapiens, NCI-H520, 96 hours, read-out: Inhibitory activity (IC50) on tumor cell proliferation, H520
Procedure: as §1, §2

BXPC-3 = experiment: CCK-8 proliferation, BXPC-3; type: cell-based; details: Homo sapiens, 96 hours, read-out: Inhibitory activity (IC50) on tumor cell proliferation, BXPC-3
Procedure: as §1, §2

PC-9 = experiment: CCK-8 proliferation, PC-9; type: cell-based, Human; details: Homo sapiens, PC-9, 96 h, read-out: Inhibitory activity (IC50) on tumor cell proliferation, PC-9
Summary of the method: as §3

H2228 = experiment: CCK-8 proliferation, NCI-H2228 (H2228); type: cell-based; details: Homo sapiens, NCI-H2228, 96 h, read-out: Inhibitory activity (IC50) on tumor cell proliferation, H2228
Summary of the method: as §3

MM.1R = experiment: CCK-8 proliferation, MM.1R; type: cell-based; details: 72 h, read-out: Inhibitory activity (IC50) on tumor cell proliferation, MM.1R
Summary of the method: as §3

H1975 = experiment: CCK-8 proliferation, NCI-H1975 (H1975); type: cell-based, Human; details: Homo sapiens, NCI-H1975, 96 h, read-out: Inhibitory activity (IC50) on tumor cell proliferation, H1975
Summary of the method: as §3

T1 sequence (Q96SW2 whole entry): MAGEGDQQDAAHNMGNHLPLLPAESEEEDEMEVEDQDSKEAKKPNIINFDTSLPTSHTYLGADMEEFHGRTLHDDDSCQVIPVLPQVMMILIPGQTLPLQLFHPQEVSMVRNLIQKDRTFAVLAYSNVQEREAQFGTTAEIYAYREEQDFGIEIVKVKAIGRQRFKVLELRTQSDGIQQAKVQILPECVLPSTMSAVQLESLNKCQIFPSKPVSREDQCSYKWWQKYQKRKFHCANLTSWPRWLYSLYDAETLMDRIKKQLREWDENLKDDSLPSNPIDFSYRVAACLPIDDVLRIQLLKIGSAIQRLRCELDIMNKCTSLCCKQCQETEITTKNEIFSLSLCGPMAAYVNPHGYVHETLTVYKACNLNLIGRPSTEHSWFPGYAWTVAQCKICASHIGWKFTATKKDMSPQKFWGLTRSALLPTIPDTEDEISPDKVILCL

IC50 (SW620; SW-620, CCK-8, 96 hours) [µM]	IC50 (THP-1) [µM]	IC50 (Jurkat) [µM]	IC50 (CCRF-CEM) [µM]	IC50 (LNcap) [µM]	SMILES	IC50 (SU-DHL-6; SU-DHL-6, CCK-8, 72 hours) [µM]	IC50 (TMD8; TMD8, CCK-8, 72 hours) [µM]	IC50 (LS174T) [µM]	other results
–	–	–	–	–	Nc1ncnc2c1c(-c1ccc(Oc3ccccc3)cc1)nn2C1CCN(Cc2ccc(C3CCC(=O)NC3=O)cc2)CC1 (centres unmarked) [GT-03507, 3-(4-((4-(4-amino-3-(4-phenoxyphenyl)-1H-pyrazolo[3,4-d]pyrimidin-1-yl)piperidin-1-yl)methyl)phenyl)piperidine-2,6-dione]	0.5 to 1	0.1 to 0.5	–	inhibition at 0.5 µM [1]: 30 to 40%; inhibition at 2 µM [1]: 80 to 100%
–	–	–	–	–	Nc1ncnc2c1c(-c1ccc(Oc3ccccc3)cc1)nn2C1CCN(Cc2ccc(C3CCC(=O)NC3=O)c(F)c2)CC1 (centres unmarked) [GT-03508, 3-(4-((4-(4-amino-3-(4-phenoxyphenyl)-1H-pyrazolo[3,4-d]pyrimidin-1-yl)piperidin-1-yl)methyl)-2-fluorophenyl)piperidine-2,6-dione]	0.5 to 1	0.1 to 0.5	–	inhibition at 0.5 µM ([1]; Table II-2, CRBN binding screening, HTRF, at 0.5µM): 30 to 40%; inhibition at 2 µM ([1]; Table II-2, CRBN binding screening, HTRF, at 2 µM): 60 to 80%
–	–	–	–	–	Nc1ncnc2c1c(-c1ccc(Oc3ccccc3)cc1)nn2[C@H]1CCN(Cc2ccc(C3CCC(=O)NC3=O)c(F)c2)C[C@H]1F (stereo partly drawn) [GT-03513, 3-(4-(((3R,4S)-4-(4-amino-3-(4-phenoxyphenyl)-1H-pyrazolo[3,4-d]pyrimidin-1-yl)-3-fluoropiperidin-1-yl)methyl)-2-fluorophenyl)piperidine-2,6-dione]	0.1 to 0.5	0.1 to 0.5	–	–
–	–	–	–	–	Nc1ncnc2c1c(-c1ccc(Oc3ccccc3)cc1)nn2[C@H]1CCN(Cc2ccc(C3CCC(=O)NC3=O)cc2)C[C@H]1F (stereo partly drawn) [GT-03542, 3-(4-(((3R,4S)-4-(4-amino-3-(4-phenoxyphenyl)-1H-pyrazolo[3,4-d]pyrimidin-1-yl)-3-fluoropiperidin-1-yl)methyl)phenyl)piperidine-2,6-dione]	0.1 to 0.5	0.1 to 0.5	–	inhibition at 0.5 µM [1]: 20 to 30%; inhibition at 2 µM [1]: 80 to 100%
0.001 to 0.01	0.01 to 0.05	0.001 to 0.01	0.001 to 0.01	0.05 to 0.1	CC1(C)CCC(c2ccc(Cl)cc2)=C(CN2CCN(c3ccc(C(=O)NS(=O)(=O)c4ccc(N[C@H](CCN5CCN(Cc6ccc(C7CCC(=O)NC7=O)c(F)c6)CC5)CSc5ccccc5)c(S(=O)(=O)C(F)(F)F)c4)cc3)CC2)C1 (stereo partly drawn) [GT-04152, 4-(4-((4'-chloro-4,4-dimethyl-3,4,5,6-tetrahydro-[1,1'-biphenyl]-2-yl)methyl)piperazin-1-yl)-N-((4-(((2R)-4-(4-(4-(2,6-dioxopiperidin-3-yl)-3-fluorobenzyl)piperazin-1-yl)-1-(phenylthio)butan-2-yl)amino)-3-((trifluoromethyl)sulfonyl)phenyl)sulfonyl)benzamide]	–	0.001 to 0.01	0.05 to 0.1	–
0.1 to 0.5	0.01 to 0.05	0.01 to 0.05	0.001 to 0.01	0.1 to 0.5	CC1(C)CCC(c2ccc(Cl)cc2)=C(CN2CCN(c3ccc(C(=O)NS(=O)(=O)c4ccc(N[C@H](CCN5CCN(Cc6cccc(N7CCC(=O)NC7=O)c6)CC5)CSc5ccccc5)c(S(=O)(=O)C(F)(F)F)c4)cc3)CC2)C1 [GT-04278, (R)-4-(4-((4'-chloro-4,4-dimethyl-3,4,5,6-tetrahydro-[1,1'-biphenyl]-2-yl)methyl)piperazin-1-yl)-N-((4-((4-(4-(3-(2,4-dioxotetrahydropyrimidin-1(2H)-yl)benzyl)piperazin-1-yl)-1-(phenylthio)butan-2-yl)amino)-3-((trifluoromethyl)sulfonyl)phenyl)sulfonyl)benzamide]	–	0.01 to 0.05	0.5 to 1	–
0.05 to 0.1	0.01 to 0.05	0.01 to 0.05	0.001 to 0.01	0.05 to 0.1	CC1(C)CCC(c2ccc(Cl)cc2)=C(CN2CCN(c3ccc(C(=O)NS(=O)(=O)c4ccc(N[C@H](CCN5CCN(Cc6cccc(NC7CCC(=O)NC7=O)c6)CC5)CSc5ccccc5)c(S(=O)(=O)C(F)(F)F)c4)cc3)CC2)C1 (stereo partly drawn) [GT-04279, 4-(4-((4'-chloro-4,4-dimethyl-3,4,5,6-tetrahydro-[1,1'-biphenyl]-2-yl)methyl)piperazin-1-yl)-N-((4-(((2R)-4-(4-(3-((2,6-dioxopiperidin-3-yl)amino)benzyl)piperazin-1-yl)-1-(phenylthio)butan-2-yl)amino)-3-((trifluoromethyl)sulfonyl)phenyl)sulfonyl)benzamide]	–	0.01 to 0.05	0.1 to 0.5	–
–	0.5 to 1	–	–	–	Cc1ccc(-c2c(C)noc2C)cc1N(CC1CCN(Cc2ccc(N3CCC(=O)NC3=O)c(F)c2)CC1)c1ccc(C2(C#N)CC2)cc1 [GT-04843, 1-(4-((5-(3,5-dimethylisoxazol-4-yl)-2-methylphenyl)((1-(4-(2,4-dioxotetrahydropyrimidin-1(2H)-yl)-3-fluorobenzyl)piperidin-4-yl)methyl)amino)phenyl)cyclopropane-1-carbonitrile]	–	–	–	IC50 (MGC-803): 0.1 to 0.5 µM; IC50 (H520): 0.5 to 1 µM; IC50 (BXPC-3): 0.1 to 0.5 µM
–	0.5 to 1	–	–	–	Cc1ccc(-c2c(C)noc2C)cc1N(CC1CCN(Cc2ccc(N3CCC(=O)NC3=O)cc2)CC1)c1ccc(C2(C#N)CC2)cc1 [GT-04844, 1-(4-((5-(3,5-dimethylisoxazol-4-yl)-2-methylphenyl)((1-(4-(2,4-dioxotetrahydropyrimidin-1(2H)-yl)benzyl)piperidin-4-yl)methyl)amino)phenyl)cyclopropane-1-carbonitrile]	–	–	–	IC50 (MGC-803): 0.1 to 0.5 µM; IC50 (H520): 0.5 to 1 µM; IC50 (BXPC-3): 0.1 to 0.5 µM
–	–	–	–	–	C=CC(=O)N1CCC[C@@H](n2nc(-c3ccc(Oc4ccccc4)cc3)c3c(N)ncnc32)C1 [ibrutinib, Ibrutinib, reference compound]	–	–	–	IC50 (SW620; SW-620, 96 h): > 10 µM; IC50 (SU-DHL-6; SU-DHL-6, 72 h): 0.1 to 0.5 µM; IC50 (PC-9): 0.1 to 0.5 µM; IC50 (H2228): > 10 µM; IC50 (TMD8; TMD8, 72 h): > 10 µM; IC50 (MM.1R): > 10 µM; IC50 (H1975): 0.5 to 1 µM
